{
  "source": "patent US12410474B2",
  "about": "“Methods, kits, and devices for diagnosing, prognosing, and treating psychiatric disorders in a patient” (Northwestern University, priority 2014, dated 2025)",
  "origin": "cited, not measured here",
  "key": {"[1]": {"tested_on": "HTR2C Ser23 and Cys23 isoreceptors", "details": "after prolonged pre-exposure to serotonin"}, "HTR2C": {"biological_target": "T1, HTR2C (Homo sapiens, UniProt P28335)", "T1 sequence (P28335 33-458)": "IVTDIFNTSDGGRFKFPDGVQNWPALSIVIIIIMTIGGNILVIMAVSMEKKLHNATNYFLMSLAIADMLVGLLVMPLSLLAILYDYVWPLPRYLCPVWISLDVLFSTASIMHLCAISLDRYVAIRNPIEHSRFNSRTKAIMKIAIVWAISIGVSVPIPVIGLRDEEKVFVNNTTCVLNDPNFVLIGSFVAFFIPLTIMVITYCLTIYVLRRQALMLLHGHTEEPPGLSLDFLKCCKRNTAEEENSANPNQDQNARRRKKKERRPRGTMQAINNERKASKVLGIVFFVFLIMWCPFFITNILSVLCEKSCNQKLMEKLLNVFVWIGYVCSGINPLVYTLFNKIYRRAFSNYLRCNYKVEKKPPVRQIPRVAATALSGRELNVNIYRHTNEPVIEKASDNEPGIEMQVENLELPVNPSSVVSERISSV"}, "HTR2A": {"biological_target": "HTR2A (Homo sapiens, UniProt P28223)", "sequence (P28223 whole entry)": "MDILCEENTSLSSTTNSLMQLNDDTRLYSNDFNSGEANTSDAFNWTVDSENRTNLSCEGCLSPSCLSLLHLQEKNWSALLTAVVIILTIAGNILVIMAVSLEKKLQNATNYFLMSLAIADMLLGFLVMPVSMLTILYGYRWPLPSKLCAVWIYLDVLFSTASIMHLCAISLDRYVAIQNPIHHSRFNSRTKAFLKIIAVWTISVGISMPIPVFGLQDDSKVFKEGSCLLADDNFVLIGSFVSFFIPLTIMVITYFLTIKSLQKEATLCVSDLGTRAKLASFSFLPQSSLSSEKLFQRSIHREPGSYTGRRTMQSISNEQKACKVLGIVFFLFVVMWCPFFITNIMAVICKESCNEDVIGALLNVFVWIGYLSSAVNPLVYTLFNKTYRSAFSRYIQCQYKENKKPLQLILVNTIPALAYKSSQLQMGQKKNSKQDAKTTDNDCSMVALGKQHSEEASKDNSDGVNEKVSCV"}},
  "data": [
    {"smiles": "Cn1ccc2cc3c(cc21)CCN3C(=O)Nc1cccnc1", "note": "[SB206553]", "values": [
      {"measurement": "cell surface expression in Ser-receptors versus Cys-receptors", "setting": "[1]", "value": "greater cell surface expression"},
      {"measurement": "resensitization in Ser-receptors versus Cys-receptors", "setting": "[1]", "value": "more rapid resensitization"}
    ]},
    {"smiles": "CN(C)CCCN1c2ccccc2Sc2ccc(Cl)cc21", "note": "[chlorpromazine]", "values": [
      {"measurement": "functional activity at HTR2C", "setting": "HTR2C", "value": "neutral antagonists"}
    ]},
    {"smiles": "O=C1NCCN1CCN1CCC(c2cn(-c3ccc(F)cc3)c3ccc(Cl)cc23)CC1", "note": "[sertindole]", "values": [
      {"measurement": "functional activity at HTR2C", "setting": "HTR2C", "value": "potent inverse agonists"},
      {"measurement": "functional activity at HTR2A", "setting": "HTR2A", "value": "potent inverse agonists"}
    ]},
    {"smiles": "O=C(CCCN1CCC2(CC1)C(=O)NCN2c1ccccc1)c1ccc(F)cc1", "note": "[spiperone]", "values": [
      {"measurement": "functional activity at HTR2C", "setting": "HTR2C", "value": "neutral antagonists"}
    ]},
    {"smiles": "CSc1ccc2c(c1)N(CCC1CCCCN1C)c1ccccc1S2", "note": "(stereo not drawn) [thioridazine]", "values": [
      {"measurement": "functional activity at HTR2C", "setting": "HTR2C", "value": "neutral antagonists"}
    ]},
    {"smiles": "CN1CCN(CC/C=C2/c3ccccc3Sc3ccc(S(=O)(=O)N(C)C)cc32)CC1", "note": "[thiothixene]", "values": [
      {"measurement": "functional activity at HTR2C", "setting": "HTR2C", "value": "neutral antagonists"}
    ]},
    {"smiles": "Cc1nc2n(c(=O)c1CCN1CCC(c3noc4cc(F)ccc34)CC1)CCCC2", "note": "[risperidone]", "values": [
      {"measurement": "functional activity at HTR2C", "setting": "HTR2C", "value": "potent inverse agonists"}
    ]}
  ]
}
